{"source": "patent US7262151B2", "about": "“Methods and compositions for production of lipo-chito oligosaccharides by rhizobacteria” (McGill University, priority 2001, dated 2007)", "type_in_all_cases": "cell-based", "key": {"[1]": {"test_system": "nod genes in Bradyrhizobium japonicum strain USDA121", "assay": "nod gene induction, β-galactosidase assay, strain USDA121 (GG3)", "conditions": "control 476.8 ± 86.6", "experimental": "(§1) Bacteria were grown in yeast extract mannitol (YEM) medium (mannitol 10.0 g, K2HPO4 0.5 g, MgSO4.7H2O 0.2 g, NaCl 0.1 g, and yeast extract 0.4 g dissolved in 1000 mL of dd H2O). In order to ensure the maintenance of the strains, tetracycline was added to the bacterial cultures at a concentration of 20 mg 1^−1. One hundred mL cultures of each strain, in 250 mL flasks, were shaken at 150 rev min^−1 at 30° C. for 3-5 days and then subcultured into 400 mL of fresh medium in 1000 mL flasks. The cultures were incubated until the OD620 reached 0.2-0.3. The cultures were then divided into 5 mL tubes (sterilized).\n(§2) Stock solutions of various inducers: genistein, salicylic acid and acetylsalicylic acid made in methanol and linolenic, linoleic, and jasmonic acid and methyl jasmonate were made in ethanol, and an appropriate amount of these inducers was added into the tubes before addition of bacterial culture. In the tubes, the final concentration of all the inducers was maintained as 5, 10, 25, 50 and 100 μM. Tubes were collected after 18 h of incubation and stored at −20° C. until the β-galactosidase activity was measured. Genistein (4′,5,7, trihydroxyisoflavone, purity 98%,), linolenic acid (9,12,15-Octadecatrienoic acid, purity 99%), linoleic acid (cis-9, cis-12-Octadecadienoic acid, purity 99%), jasmonic acid (±Jasmonic acid, C12H18O3) and salicylic acid (2-hydroxybenzoic acid, purity 99.0%) were obtained from Sigma, while acetylsalicylic acid (C9H8O4, 99% purity) was obtained from Acros and methyl jasmonate (95% purity) was obtained from Aldrich Chemical Company, Inc.\n(§3) β-galactosidase is an enzyme which hydrolyzes β-D-galactosides. The activity of this enzyme can easily be measured with colorless substrates, which upon hydrolysis produce colored products. O-nitrophenyl-β-galactoside (ONPG) is a colorless compound and is converted to galactose and O-nitrophenol in the presence of β-galactosidase. The O-nitrophenol is yellow and can be measured by its absorption at 420 nm. In the present study, nod gene expression was indirectly measured by β-galactosidase activity following the method of Miller (1972) as modified by Stachel et al, (1985). Briefly, 0.5 mL culture was mixed with 2×Z buffer (Na2HPO4.7H2O, 16.1 g, NaH2PO4.H2O, 5.5 g, KCl 0.75 g, MgSO4.7H2O 0.246 g, β-mercaptoethanol 2.7 g, pH 7.0 dissolved in 500 mL water) and 40 μL toluene and vortexed for 10 seconds. The culture was then incubated in a water bath at 37° C. for 30 minutes and then 0.2 mL of O-nitrophenyl β-D-galactopyranoside (ONPG) was added at a concentration of 4 mg mL^−1. The cultures were incubated again in the water bath until the color of the culture changed. The reaction time was recorded and the reaction was stopped with 1M Na2CO3. After centrifugation at 10,000 rpm for 4 minutes, spectrophotometric reading at OD420 and OD600 were taken and the β-galactosidase activity was measured (β-galactosidase activity=OD420*1000/OD600*T*V, where T is the reaction time and V is the volume of the bacterial culture used for enzyme assay).\n(§4) The effect of 0-100 μM concentrations of each of acetylsalicylic acid, salicylic acid, jasmonic acid, methyl jasmonate, and genistein, on induction of nod gene expression in Bradyrhizobium japonicum strains USDA31, USDA76, USDA121, and USDA3, was evaluated in accordance with the β-galactosidase assay of Experiment 1 in Example 1 above."}, "[2]": {"test_system": "nod genes in Bradyrhizobium japonicum strain USDA3", "conditions": "for nod gene induction (β-galactosidase activity): USDA3 (GG4), control 362 ± 25; for expression of nod genes (β-galactosidase assay), in words: FIG. 1; for synergistic effect on β-galactosidase activity: simultaneous addition with genistein (5 μM), FIG. 2", "experimental": "Bradyrhizobium japonicum strain USDA3, harboring plasmid GG4, was used in the experiment. Plasmid GG4 contains a translational fusion between B. japonicum nod Y open-reading frame and lac Z of Escherichia coli.\nas §1, §2, §3\nThe experiment was designed in a randomized complete block design (RCBD) with three replicates. […] Data are shown from the second experiment. Statistical analysis of the data was done with analysis of variance using the Statistical Analysis System computer package (SAS Institute, 1988). Comparisons among treatment means were made with an ANOVA protected LSD at the 0.05 level of statistical significance."}, "[3]": {"test_system": "nod genes in Bradyrhizobium japonicum strain USDA31", "assay": "nod gene induction, β-galactosidase assay, strain USDA31 (GG1)", "experimental": "as §1, §2, §3, §4"}, "[4]": {"test_system": "nod genes in Bradyrhizobium japonicum strain USDA76", "assay": "nod gene induction, β-galactosidase assay, strain USDA 76 (GG2)", "conditions": "control 411.8 ± 26.8", "experimental": "as §1, §2, §3, §4"}, "[5]": {"conditions": "concentrations from 25 to 100 μM"}, "[6]": {"conditions": "5 μM, control without inducer 522.6 ± 15.9"}}, "note": "Read-outs that look alike come from different tables or passages of the source.", "data": [{"molecule": "CC/C=C\\C[C@H]1C(=O)CC[C@@H]1CC(=O)O", "note": "[JA, [1R-[1α,2β(Z)]]-3-oxo-2-(pentenyl)cyclopentaneacetic acid]", "values": [{"measurement": "nod gene induction (β-galactosidase activity)", "setting": "[1]; 5 μM", "value": "540.3 ± 79.3"}, {"measurement": "nod gene induction (β-galactosidase activity)", "setting": "[1]; 10 μM", "value": "473.7 ± 58.3"}, {"measurement": "nod gene induction (β-galactosidase activity)", "setting": "[1]; 25 μM", "value": "496 ± 49.2"}, {"measurement": "nod gene induction (β-galactosidase activity)", "setting": "[1]; 50 μM", "value": "412.7 ± 22.9"}, {"measurement": "nod gene induction (β-galactosidase activity)", "setting": "[1]; 100 μM", "value": "329.5 ± 19.3"}, {"measurement": "nod gene induction (β-galactosidase activity)", "setting": "[2]; 5 μM", "value": "368 ± 23"}, {"measurement": "nod gene induction (β-galactosidase activity)", "setting": "[2]; 10 μM", "value": "362 ± 9"}, {"measurement": "nod gene induction (β-galactosidase activity)", "setting": "[2]; 25 μM", "value": "3200 ± 230"}, {"measurement": "nod gene induction (β-galactosidase activity)", "setting": "[2]; 50 μM", "value": "3900 ± 150"}, {"measurement": "nod gene induction (β-galactosidase activity)", "setting": "[2]; 100 μM", "value": "550 ± 210"}, {"measurement": "expression of nod genes (β-galactosidase assay), in words", "setting": "[2]; concentrations 10 μM or less", "value": "showed no activity"}, {"measurement": "expression of nod genes (β-galactosidase assay), in words", "setting": "[2]; [5]", "value": "strongly induced the expression of nod genes"}, {"measurement": "synergistic effect on β-galactosidase activity", "setting": "[2]", "value": "did not result in any synergistic effect"}, {"measurement": "nod gene induction (β-galactosidase activity)", "setting": "[3]; [6]", "value": "1653.3 ± 105.2"}, {"measurement": "nod gene induction (β-galactosidase activity)", "setting": "[3]; 10 μM, control 522.6 ± 15.9", "value": "2079 ± 254.9"}, {"measurement": "nod gene induction (β-galactosidase activity)", "setting": "[3]; 25 μM, control 522.6 ± 15.9", "value": "1853.3 ± 314.5"}, {"measurement": "nod gene induction (β-galactosidase activity)", "setting": "[3]; 50 μM, control 522.6 ± 15.9", "value": "1884.3 ± 289.3"}, {"measurement": "nod gene induction (β-galactosidase activity)", "setting": "[3]; 100 μM, control 522.6 ± 15.9", "value": "796 ± 67.3"}, {"measurement": "nod gene induction (β-galactosidase activity)", "setting": "[4]; 5 μM", "value": "393.5 ± 30.5"}, {"measurement": "nod gene induction (β-galactosidase activity)", "setting": "[4]; 10 μM", "value": "447.9 ± 21"}, {"measurement": "nod gene induction (β-galactosidase activity)", "setting": "[4]; 25 μM", "value": "420.1 ± 4.6"}, {"measurement": "nod gene induction (β-galactosidase activity)", "setting": "[4]; 50 μM", "value": "375.1 ± 35.3"}, {"measurement": "nod gene induction (β-galactosidase activity)", "setting": "[4]; 100 μM", "value": "357.7 ± 9.7"}]}, {"molecule": "O=c1c(-c2ccc(O)cc2)coc2cc(O)cc(O)c12", "note": "[GEN, 5,7,4′-trihydroxyisoflavone]", "values": [{"measurement": "nod gene induction (β-galactosidase activity)", "setting": "[1]; 5 μM", "value": "2081.7 ± 148.5"}, {"measurement": "nod gene induction (β-galactosidase activity)", "setting": "[1]; 10 μM", "value": "1685.1 ± 53.3"}, {"measurement": "nod gene induction (β-galactosidase activity)", "setting": "[1]; 25 μM", "value": "1286.8 ± 145.5"}, {"measurement": "nod gene induction (β-galactosidase activity)", "setting": "[1]; 50 μM", "value": "1154.5 ± 121.1"}, {"measurement": "nod gene induction (β-galactosidase activity)", "setting": "[1]; 100 μM", "value": "430.9 ± 80.6"}, {"measurement": "nod gene induction (β-galactosidase activity)", "setting": "[2]; 5 μM", "value": "3304 ± 333"}, {"measurement": "nod gene induction (β-galactosidase activity)", "setting": "[2]; 10 μM", "value": "2500 ± 94"}, {"measurement": "nod gene induction (β-galactosidase activity)", "setting": "[2]; 25 μM", "value": "2300 ± 219"}, {"measurement": "nod gene induction (β-galactosidase activity)", "setting": "[2]; 50 μM", "value": "1930 ± 74"}, {"measurement": "nod gene induction (β-galactosidase activity)", "setting": "[2]; 100 μM", "value": "406 ± 15"}, {"measurement": "optimum concentration for nod gene induction", "setting": "[2]; USDA3, β-galactosidase assay", "value": 5, "unit": "µM"}, {"measurement": "nod gene induction (β-galactosidase activity)", "setting": "[3]; [6]", "value": "2283.8 ± 57.7"}, {"measurement": "nod gene induction (β-galactosidase activity)", "setting": "[3]; 10 μM, control 522.6 ± 15.9", "value": "2007.6 ± 36.7"}, {"measurement": "nod gene induction (β-galactosidase activity)", "setting": "[3]; 25 μM, control 522.6 ± 15.9", "value": "1821 ± 89.2"}, {"measurement": "nod gene induction (β-galactosidase activity)", "setting": "[3]; 50 μM, control 522.6 ± 15.9", "value": "1121.1 ± 156.9"}, {"measurement": "nod gene induction (β-galactosidase activity)", "setting": "[3]; 100 μM, control 522.6 ± 15.9", "value": "491.9 ± 31.6"}, {"measurement": "nod gene induction (β-galactosidase activity)", "setting": "[4]; 5 μM", "value": "1421.7 ± 93.4"}, {"measurement": "nod gene induction (β-galactosidase activity)", "setting": "[4]; 10 μM", "value": "1320.8 ± 75.99"}, {"measurement": "nod gene induction (β-galactosidase activity)", "setting": "[4]; 25 μM", "value": "1383.8 ± 98.22"}, {"measurement": "nod gene induction (β-galactosidase activity)", "setting": "[4]; 50 μM", "value": "1160.7 ± 89.7"}, {"measurement": "nod gene induction (β-galactosidase activity)", "setting": "[4]; 100 μM", "value": "413.7 ± 7.4"}]}, {"molecule": "CC/C=C\\CC1C(=O)CCC1CC(=O)OC", "note": "(stereo not shown) [MeJA, methyl jasmonate]", "values": [{"measurement": "nod gene induction (β-galactosidase activity)", "setting": "[1]; 5 μM", "value": "518 ± 42.6"}, {"measurement": "nod gene induction (β-galactosidase activity)", "setting": "[1]; 10 μM", "value": "487.1 ± 33"}, {"measurement": "nod gene induction (β-galactosidase activity)", "setting": "[1]; 25 μM", "value": "427 ± 29.4"}, {"measurement": "nod gene induction (β-galactosidase activity)", "setting": "[1]; 50 μM", "value": "549.2 ± 81.6"}, {"measurement": "nod gene induction (β-galactosidase activity)", "setting": "[1]; 100 μM", "value": "487.9 ± 89.3"}, {"measurement": "nod gene induction (β-galactosidase activity)", "setting": "[2]; 5 μM", "value": "448 ± 30"}, {"measurement": "nod gene induction (β-galactosidase activity)", "setting": "[2]; 10 μM", "value": "500 ± 61"}, {"measurement": "nod gene induction (β-galactosidase activity)", "setting": "[2]; 25 μM", "value": "3000 ± 350"}, {"measurement": "nod gene induction (β-galactosidase activity)", "setting": "[2]; 50 μM", "value": "4700 ± 450"}, {"measurement": "nod gene induction (β-galactosidase activity)", "setting": "[2]; 100 μM", "value": "4500 ± 400"}, {"measurement": "expression of nod genes (β-galactosidase assay), in words", "setting": "[2]; concentrations 10 μM or less", "value": "showed no activity"}, {"measurement": "expression of nod genes (β-galactosidase assay), in words", "setting": "[2]; [5]", "value": "strongly induced the expression of nod genes"}, {"measurement": "synergistic effect on β-galactosidase activity", "setting": "[2]", "value": "did not result in any synergistic effect"}, {"measurement": "nod gene induction (β-galactosidase activity)", "setting": "[3]; [6]", "value": "472.2 ± 14.8"}, {"measurement": "nod gene induction (β-galactosidase activity)", "setting": "[3]; 10 μM, control 522.6 ± 15.9", "value": "485.3 ± 42.5"}, {"measurement": "nod gene induction (β-galactosidase activity)", "setting": "[3]; 25 μM, control 522.6 ± 15.9", "value": "403.3 ± 5.6"}, {"measurement": "nod gene induction (β-galactosidase activity)", "setting": "[3]; 50 μM, control 522.6 ± 15.9", "value": "500.1 ± 32"}, {"measurement": "nod gene induction (β-galactosidase activity)", "setting": "[3]; 100 μM, control 522.6 ± 15.9", "value": "392.9 ± 22.7"}, {"measurement": "nod gene induction (β-galactosidase activity)", "setting": "[4]; 5 μM", "value": "435.4 ± 39"}, {"measurement": "nod gene induction (β-galactosidase activity)", "setting": "[4]; 10 μM", "value": "418.4 ± 53.1"}, {"measurement": "nod gene induction (β-galactosidase activity)", "setting": "[4]; 25 μM", "value": "392.7 ± 2.1"}, {"measurement": "nod gene induction (β-galactosidase activity)", "setting": "[4]; 50 μM", "value": "410.4 ± 24.5"}, {"measurement": "nod gene induction (β-galactosidase activity)", "setting": "[4]; 100 μM", "value": "386.4 ± 37.3"}]}]}
